According to PubChem BioAssay (NCI):
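Five compound concentrations were applied to cells in 96-well plates for 48 hours; endpoints were derived by simple linear interpolation of the resulting dose-response curve. The concentration for 50% growth inhibition is given as GI50. TGI denotes the concentration required for complete inhibition of growth.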

Experiments:
Assay in all cases: NCI-60 cell line screen, 48 h
UO-31 renal = tested on: UO-31 renal
KM12 colon = tested on: KM12 colon
SK-MEL-28 melanoma = tested on: SK-MEL-28 melanoma
TK-10 renal = tested on: TK-10 renal
OVCAR-8 ovarian = tested on: OVCAR-8 ovarian
SNB-19 CNS = tested on: SNB-19 CNS
HOP-92 NSCLC = tested on: HOP-92 NSCLC
SK-MEL-2 melanoma = tested on: SK-MEL-2 melanoma
CAKI-1 renal = tested on: CAKI-1 renal
HS 578T breast = tested on: HS 578T breast
U251 CNS = tested on: U251 CNS
SR leukemia = tested on: SR leukemia
PC-3 prostate = tested on: PC-3 prostate
LOX IMVI melanoma = tested on: LOX IMVI melanoma
COLO 205 colon = tested on: COLO 205 colon
SK-OV-3 ovarian = tested on: SK-OV-3 ovarian
SW-620 colon = tested on: SW-620 colon
SNB-75 CNS = tested on: SNB-75 CNS
HCT-116 colon = tested on: HCT-116 colon
OVCAR-3 ovarian = tested on: OVCAR-3 ovarian
T-47D breast = tested on: T-47D breast
HL-60(TB) leukemia = tested on: HL-60(TB) leukemia
SK-MEL-5 melanoma = tested on: SK-MEL-5 melanoma
786-0 renal = tested on: 786-0 renal
M14 melanoma = tested on: M14 melanoma
EKVX NSCLC = tested on: EKVX NSCLC
NCI-H460 lung = tested on: NCI-H460 lung
A549 NSCLC = tested on: A549 NSCLC
BT-549 breast = tested on: BT-549 breast
SF-295 CNS = tested on: SF-295 CNS
HOP-62 NSCLC = tested on: HOP-62 NSCLC
OVCAR-5 ovarian = tested on: OVCAR-5 ovarian
UACC-62 melanoma = tested on: UACC-62 melanoma
DU-145 prostate = tested on: DU-145 prostate
HCT-15 colon = tested on: HCT-15 colon
MDA-MB-231 breast = tested on: MDA-MB-231 breast
HCC-2998 colon = tested on: HCC-2998 colon
RXF 393 renal = tested on: RXF 393 renal
IGROV1 ovarian = tested on: IGROV1 ovarian
NCI/ADR-RES ovarian = tested on: NCI/ADR-RES ovarian
OVCAR-4 ovarian = tested on: OVCAR-4 ovarian
RPMI-8226 leukemia = tested on: RPMI-8226 leukemia
MDA-MB-435 = tested on: MDA-MB-435
K-562 leukemia = tested on: K-562 leukemia
ACHN renal = tested on: ACHN renal
SN12C renal = tested on: SN12C renal
SF-539 CNS = tested on: SF-539 CNS
UACC-257 melanoma = tested on: UACC-257 melanoma
SF-268 CNS = tested on: SF-268 CNS
CCRF-CEM leukemia = tested on: CCRF-CEM leukemia
MALME-3M melanoma = tested on: MALME-3M melanoma
MCF7 breast = tested on: MCF7 breast
HT29 colon = tested on: HT29 colon
NCI-H522 lung = tested on: NCI-H522 lung
NCI-H23 lung = tested on: NCI-H23 lung
MOLT-4 leukemia = tested on: MOLT-4 leukemia
NCI-H226 lung = tested on: NCI-H226 lung

N#CC1C(N)=NNC12Nc1ccccc1N2 (stereo unspecified)
GI50 (UO-31 renal): 11.5 µM
TGI (UO-31 renal): 84.9 µM
GI50 (KM12 colon): > 100 µM
TGI (KM12 colon): > 100 µM
GI50 (SK-MEL-28 melanoma): 27.9 µM
TGI (SK-MEL-28 melanoma): > 100 µM
GI50 (TK-10 renal): 30.7 µM
TGI (TK-10 renal): 73.3 µM
GI50 (OVCAR-8 ovarian): 0.2 µM
TGI (OVCAR-8 ovarian): 21.4 µM
GI50 (SNB-19 CNS): 17.8 µM
TGI (SNB-19 CNS): 91 µM
GI50 (HOP-92 NSCLC): 2.2 µM
TGI (HOP-92 NSCLC): 34.5 µM
GI50 (SK-MEL-2 melanoma): 15.1 µM
TGI (SK-MEL-2 melanoma): 77.5 µM
GI50 (CAKI-1 renal): 11.7 µM
TGI (CAKI-1 renal): 74.5 µM
GI50 (HS 578T breast): 4.8 µM
TGI (HS 578T breast): 25.7 µM
GI50 (U251 CNS): 22.6 µM
TGI (U251 CNS): > 100 µM
GI50 (SR leukemia): 6.4 µM
TGI (SR leukemia): 36.8 µM
GI50 (PC-3 prostate): 22.2 µM
TGI (PC-3 prostate): > 100 µM
GI50 (LOX IMVI melanoma): 26.7 µM
TGI (LOX IMVI melanoma): > 100 µM
GI50 (COLO 205 colon): 16.5 µM
TGI (COLO 205 colon): 48.9 µM
GI50 (SK-OV-3 ovarian): 30 µM
TGI (SK-OV-3 ovarian): > 100 µM
GI50 (SW-620 colon): 26.8 µM
TGI (SW-620 colon): > 100 µM
GI50 (SNB-75 CNS): 24.8 µM
TGI (SNB-75 CNS): > 100 µM
GI50 (HCT-116 colon): 34.1 µM
TGI (HCT-116 colon): > 100 µM
GI50 (OVCAR-3 ovarian): 3.16 µM
TGI (OVCAR-3 ovarian): 19.4 µM
GI50 (T-47D breast): 50.3 µM
TGI (T-47D breast): > 100 µM
GI50 (HL-60(TB) leukemia): 52.4 µM
TGI (HL-60(TB) leukemia): > 100 µM
GI50 (SK-MEL-5 melanoma): 4.11 µM
TGI (SK-MEL-5 melanoma): 21.2 µM
GI50 (786-0 renal): 45 µM
TGI (786-0 renal): > 100 µM
GI50 (M14 melanoma): 65.9 µM
TGI (M14 melanoma): > 100 µM
GI50 (EKVX NSCLC): 14.9 µM
TGI (EKVX NSCLC): 64.6 µM
GI50 (NCI-H460 lung): 13.6 µM
TGI (NCI-H460 lung): 38.1 µM
GI50 (A549 NSCLC): 9.43 µM
TGI (A549 NSCLC): > 100 µM
GI50 (BT-549 breast): 6.55 µM
TGI (BT-549 breast): 31.6 µM
GI50 (SF-295 CNS): 18.8 µM
TGI (SF-295 CNS): 69.4 µM
GI50 (HOP-62 NSCLC): 64.3 µM
TGI (HOP-62 NSCLC): > 100 µM
GI50 (OVCAR-5 ovarian): > 100 µM
TGI (OVCAR-5 ovarian): > 100 µM
GI50 (UACC-62 melanoma): 3.28 µM
TGI (UACC-62 melanoma): 33.8 µM
GI50 (DU-145 prostate): 10.8 µM
TGI (DU-145 prostate): > 100 µM
GI50 (HCT-15 colon): 31.4 µM
TGI (HCT-15 colon): > 100 µM
GI50 (MDA-MB-231 breast): 3.04 µM
TGI (MDA-MB-231 breast): 40.6 µM
GI50 (HCC-2998 colon): 31.9 µM
TGI (HCC-2998 colon): > 100 µM
GI50 (RXF 393 renal): 0.335 µM
TGI (RXF 393 renal): 7.27 µM
GI50 (IGROV1 ovarian): 11.9 µM
TGI (IGROV1 ovarian): 71.3 µM
GI50 (NCI/ADR-RES ovarian): 24.5 µM
TGI (NCI/ADR-RES ovarian): 74.5 µM
GI50 (OVCAR-4 ovarian): 18 µM
TGI (OVCAR-4 ovarian): 92.3 µM
GI50 (RPMI-8226 leukemia): 2.91 µM
TGI (RPMI-8226 leukemia): 7.8 µM
GI50 (MDA-MB-435): 14.1 µM
TGI (MDA-MB-435): 63.7 µM
GI50 (K-562 leukemia): 14 µM
TGI (K-562 leukemia): 78.6 µM
GI50 (ACHN renal): 34.9 µM
TGI (ACHN renal): > 100 µM

COc1ccc(-c2ccc(/C=N/n3c(COc4ccc(Cl)cc4)n[nH]c3=S)o2)c([N+](=O)[O-])c1
GI50 (UO-31 renal): 33.5 µM
TGI (UO-31 renal): > 100 µM
GI50 (KM12 colon): 8.12 µM
TGI (KM12 colon): 41.3 µM
GI50 (SK-MEL-28 melanoma): 17.3 µM
TGI (SK-MEL-28 melanoma): > 100 µM
GI50 (TK-10 renal): 14.6 µM
TGI (TK-10 renal): 37.1 µM
GI50 (OVCAR-8 ovarian): 24.6 µM
TGI (OVCAR-8 ovarian): > 100 µM
GI50 (SN12C renal): 19.9 µM
TGI (SN12C renal): 53.4 µM
GI50 (SNB-19 CNS): 20.1 µM
TGI (SNB-19 CNS): 53.6 µM
GI50 (HOP-92 NSCLC): 15.1 µM
TGI (HOP-92 NSCLC): 43.8 µM
GI50 (SK-MEL-2 melanoma): 41.9 µM
TGI (SK-MEL-2 melanoma): > 100 µM
GI50 (CAKI-1 renal): 3.96 µM
TGI (CAKI-1 renal): 22.2 µM
GI50 (HS 578T breast): 47.7 µM
TGI (HS 578T breast): > 100 µM
GI50 (U251 CNS): 15.5 µM
TGI (U251 CNS): 49.7 µM
GI50 (PC-3 prostate): 12.2 µM
TGI (PC-3 prostate): 35.9 µM
GI50 (SF-539 CNS): 18.6 µM
TGI (SF-539 CNS): 42.2 µM
GI50 (COLO 205 colon): 20.1 µM
TGI (COLO 205 colon): 45.2 µM
GI50 (UACC-257 melanoma): 15.9 µM
TGI (UACC-257 melanoma): 51.4 µM
GI50 (SK-OV-3 ovarian): 19.9 µM
TGI (SK-OV-3 ovarian): 53.3 µM
GI50 (SNB-75 CNS): 37.4 µM
TGI (SNB-75 CNS): > 100 µM
GI50 (HCT-116 colon): 16.8 µM
TGI (HCT-116 colon): 40.7 µM
GI50 (SF-268 CNS): 16.6 µM
TGI (SF-268 CNS): 42.6 µM
GI50 (T-47D breast): 9.57 µM
TGI (T-47D breast): 82.4 µM
GI50 (HL-60(TB) leukemia): 14.8 µM
TGI (HL-60(TB) leukemia): 44.3 µM
GI50 (786-0 renal): 18.4 µM
TGI (786-0 renal): 44.7 µM
GI50 (M14 melanoma): 32.7 µM
TGI (M14 melanoma): > 100 µM
GI50 (CCRF-CEM leukemia): 17.5 µM
TGI (CCRF-CEM leukemia): 52 µM
GI50 (EKVX NSCLC): 12.4 µM
TGI (EKVX NSCLC): 54.1 µM
GI50 (NCI-H460 lung): 13 µM
TGI (NCI-H460 lung): 32.8 µM
GI50 (A549 NSCLC): 11.6 µM
TGI (A549 NSCLC): 44.1 µM
GI50 (BT-549 breast): 13.6 µM
TGI (BT-549 breast): 50 µM
GI50 (MALME-3M melanoma): 14.1 µM
TGI (MALME-3M melanoma): 37 µM
GI50 (MCF7 breast): 16.9 µM
TGI (MCF7 breast): 56.9 µM
GI50 (HOP-62 NSCLC): 22.6 µM
TGI (HOP-62 NSCLC): 40.4 µM
GI50 (OVCAR-5 ovarian): 24.7 µM
TGI (OVCAR-5 ovarian): 51.4 µM
GI50 (UACC-62 melanoma): 17.8 µM
TGI (UACC-62 melanoma): 51.7 µM
GI50 (HCT-15 colon): 16 µM
TGI (HCT-15 colon): 45.8 µM
GI50 (HT29 colon): 21.1 µM
TGI (HT29 colon): 50.9 µM
GI50 (MDA-MB-231 breast): 14.2 µM
TGI (MDA-MB-231 breast): 48.5 µM
GI50 (NCI-H522 lung): 25.7 µM
TGI (NCI-H522 lung): > 100 µM
GI50 (NCI-H23 lung): 13.8 µM
TGI (NCI-H23 lung): 33.7 µM
GI50 (HCC-2998 colon): 16.5 µM
TGI (HCC-2998 colon): 31.2 µM
GI50 (RXF 393 renal): 12.7 µM
TGI (RXF 393 renal): 32.3 µM
GI50 (NCI/ADR-RES ovarian): 15.8 µM
TGI (NCI/ADR-RES ovarian): 50 µM
GI50 (MOLT-4 leukemia): 16.5 µM
TGI (MOLT-4 leukemia): 75.4 µM
GI50 (OVCAR-4 ovarian): 2.87 µM
TGI (OVCAR-4 ovarian): 18.2 µM
GI50 (NCI-H226 lung): 13.5 µM
TGI (NCI-H226 lung): 57.8 µM
GI50 (MDA-MB-435): 25.9 µM
TGI (MDA-MB-435): > 100 µM
GI50 (K-562 leukemia): 11.6 µM
TGI (K-562 leukemia): 53.4 µM
GI50 (ACHN renal): 17.2 µM
TGI (ACHN renal): 39.6 µM
